The target in this assay is T1, LXRβ (Homo sapiens, UniProt P55055).
T1 construct: Co-transfection expression plasmids, comprising full-length LXRα (pCMX-h LXRα or LXRβ (pCMX-hLXRβ)); expressed in transfected cells; host or cells: CV-1 African green monkey kidney cells, transient transfection with pCMX-hLXRβ
T1 sequence (P55055 1-460): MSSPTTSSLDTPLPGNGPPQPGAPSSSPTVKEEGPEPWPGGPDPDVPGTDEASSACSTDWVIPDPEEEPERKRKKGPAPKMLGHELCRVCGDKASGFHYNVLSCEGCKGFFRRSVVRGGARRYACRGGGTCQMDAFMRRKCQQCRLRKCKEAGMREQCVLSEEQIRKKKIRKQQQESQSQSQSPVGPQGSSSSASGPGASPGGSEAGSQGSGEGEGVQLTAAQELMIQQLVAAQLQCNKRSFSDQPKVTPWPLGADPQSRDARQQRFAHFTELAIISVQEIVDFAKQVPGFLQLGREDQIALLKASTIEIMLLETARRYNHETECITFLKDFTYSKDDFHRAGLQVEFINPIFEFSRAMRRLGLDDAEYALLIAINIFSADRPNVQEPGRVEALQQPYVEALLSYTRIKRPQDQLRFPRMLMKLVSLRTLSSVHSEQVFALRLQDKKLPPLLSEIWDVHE
T1 sequence (P19793 1-462 partner): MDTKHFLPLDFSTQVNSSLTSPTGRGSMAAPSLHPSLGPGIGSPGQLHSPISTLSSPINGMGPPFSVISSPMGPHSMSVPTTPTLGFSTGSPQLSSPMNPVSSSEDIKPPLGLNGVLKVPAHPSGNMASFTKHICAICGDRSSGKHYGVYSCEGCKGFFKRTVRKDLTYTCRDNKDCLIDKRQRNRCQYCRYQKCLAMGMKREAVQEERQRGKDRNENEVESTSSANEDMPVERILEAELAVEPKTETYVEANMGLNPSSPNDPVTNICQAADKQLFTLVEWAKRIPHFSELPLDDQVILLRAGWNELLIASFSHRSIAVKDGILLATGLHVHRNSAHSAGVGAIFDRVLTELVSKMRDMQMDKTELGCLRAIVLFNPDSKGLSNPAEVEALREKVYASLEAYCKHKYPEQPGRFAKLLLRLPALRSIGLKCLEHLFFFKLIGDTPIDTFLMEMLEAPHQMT
Description: LXR/LXRE co-transfection assay (luciferase reporter) in CV-1 cells, LXRβ. It counts as cell-based. The conditions noted are these: for pEC50: CV-1 cells transfected with pCMX-hLXRβ and LXREx1-Tk-Luciferase, 20 hours incubation, read-out: LXRbeta agonism EC50; for Emax: CV-1 cells, relative to maximum response of high control N-(3-((4-fluorophenyl)-(naphthalene-2-sulfonyl)amino)propyl)-2,2-dimethylpropionamide, read-out: LXRbeta % EFFICACY
In short, it runs like this: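 Luciferase read-out after 20 h compound treatment at 37 °C of CV-1 cells carrying transfected hLXRβ plus one-copy LXRE reporter, endogenous RXR partnering. Sigmoidal fit of 10-point half-log curves (4 wells each) gave EC50; % efficacy versus maximal response of the propionamide reference agonist.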
A general note: Reporter assays use an easily measured gene product as a stand-in for the process of interest.

pEC50: −log10 of the molar value.

A word on the pEC50: it is the EC50 on a negative log10 scale, so that one unit is a factor of ten. Take `Cc1nc(-c2ccc3c(c2)OC(F)(F)O3)c(-c2cc(-c3cccc(C(C)(C)C(N)=O)c3)ccc2-n2ccc(C(N)=O)n2)o1` [Example 364, 1-(3′-(1-amino-2-methyl-1-oxopropan-2-yl)-3-(4-(2,2-difluorobenzo[d][1,3]dioxol-5-yl)-2-methyloxazol-5-yl)-[1,1′-biphenyl]-4-yl)-1H-pyrazole-3-carboxamide]: the pEC50 is 6.02 and the Emax is 18%.

In the case of `Cc1nc(-c2ccc(OC(F)(F)F)cc2)c(-c2cc(-c3cccc(C(C)(C)C(N)=O)c3)ccc2-n2ccc(CC#N)n2)o1` [Example 365, 2-(4′-(3-(cyanomethyl)-1H-pyrazol-1-yl)-3′-(2-methyl-4-(4-(trifluoromethoxy)phenyl)oxazol-5-yl)-[1,1′-biphenyl]-3-yl)-2-methylpropanamide], the negative logarithm of the EC50 (pEC50) was 6.37 and the Emax is 76%.

In the case of `Cc1nc(-c2ccc(OC(F)(F)F)cc2)c(-c2cc(-c3cccc(C(C)(C)C(N)=O)c3)ccc2-n2ccc(C(=O)NCC(F)(F)F)n2)o1` [Example 366], the pEC50 is 6.53 and the Emax was found to be 28%.

`Cc1nc(-c2ccc(OC(F)(F)F)cc2)c(-c2cc(-c3cccc(S(C)(=O)=O)c3)ccc2-n2ccc(CC#N)n2)o1` [Example 369, 2-(1-(3-(2-methyl-4-(4-(trifluoromethoxy)phenyl)oxazol-5-yl)-3′-(methylsulfonyl)-[1,1′-biphenyl]-4-yl)-1H-pyrazol-3-yl)acetonitrile]: the pEC50 is 6.65 and the Emax is 99%.

`Cc1nc(-c2ccc(OC(F)(F)F)cc2)c(-c2cc(-c3cc(F)c(CO)c(S(C)(=O)=O)c3)ccc2-n2ccc(CC#N)n2)o1` [Example 370]: the pEC50 was 6.90 and the Emax worked out at 86%.

As to `Cc1nc(-c2ccc(OC(F)(F)F)cc2)c(-c2cc(-c3cccc(S(C)(=O)=O)c3)ccc2-n2ccc(C(=O)NCC(F)(F)F)n2)o1` [Example 371, 1-(3-(2-methyl-4-(4-(trifluoromethoxy)phenyl)oxazol-5-yl)-3′-(methylsulfonyl)-[1,1′-biphenyl]-4-yl)-N-(2,2,2-trifluoroethyl)-1H-pyrazole-3-carboxamide], the negative-log EC50 (pEC50) is 6.92 and the Emax came out at 33%.

As to `Cc1nc(-c2ccc(OC(F)(F)F)cc2)c(-c2cc(-c3cc(F)c(CO)c(S(C)(=O)=O)c3)ccc2-n2ccc(C(=O)NCC(F)(F)F)n2)o1` [Example 372], the pEC50 is 6.91 and the Emax came to 38%.

Regarding `Cc1nc(-c2ccc(OC(F)(F)F)cc2)c(-c2cc(-c3cccc(S(C)(=O)=O)c3)ccc2-n2ccc(C(C)(C)C#N)n2)o1` [Example 373], the pEC50 is 7.04 and the Emax is 22%.

In the case of `Cc1nc(-c2ccc(OC(F)(F)F)cc2)c(-c2cc(-c3cccc(S(C)(=O)=O)c3)ccc2-n2ccc(COC(N)=O)n2)o1` [Example 374, (1-(3-(2-methyl-4-(4-(trifluoromethoxy)phenyl)oxazol-5-yl)-3′-(methylsulfonyl)-[1,1′-biphenyl]-4-yl)-1H-pyrazol-3-yl) methyl carbamate], the pEC50 was 6.38 and the Emax came to 47%.

Regarding `Cc1nc(-c2ccc(OC(F)(F)F)cc2)c(-c2cc(-c3cc(F)c(CO)c(S(C)(=O)=O)c3)ccc2-n2ccc(COC(N)=O)n2)o1` [Example 375, (1-(3′-fluoro-4′-(hydroxymethyl)-3-(2-methyl-4-(4-(trifluoromethoxy)phenyl)oxazol-5-yl)-5′-(methylsulfonyl)-[1,1′-biphenyl]-4-yl)-1H-pyrazol-3-yl) methyl carbamate], the negative-log EC50 (pEC50) is 6.70 and the Emax was 62%.

With `Cc1nc(-c2ccc(OC(F)(F)F)cc2)c(-c2cc(-c3cccc(C(C)(C)C(N)=O)c3)ccc2-n2ccc(COC(N)=O)n2)o1` [Example 376, (1-(3′-(1-amino-2-methyl-1-oxopropan-2-yl)-3-(2-methyl-4-(4-(trifluoromethoxy)phenyl)oxazol-5-yl)-[1,1′-biphenyl]-4-yl)-1H-pyrazol-3-yl)methyl carbamate], the pEC50 was 5.89 and the Emax amounted to 53%.

For `Cc1nc(-c2ccc(OC(F)(F)F)cc2)c(-c2cc(-c3cc(F)c(CO)c(S(C)(=O)=O)c3)ccc2-n2ccc(C(C)(C)C#N)n2)o1` [Example 377, 2-(1-(3′-fluoro-4′-(hydroxymethyl)-3-(2-methyl-4-(4-(trifluoromethoxy)phenyl)oxazol-5-yl)-5′-(methylsulfonyl)-[1,1′-biphenyl]-4-yl)-1H-pyrazol-3-yl)-2-methylpropanenitrile], the pEC50 is 7.55 and the Emax was 23%.

Consider `Cc1nc(-c2ccc(OC(F)(F)F)cc2)c(-c2cc(-c3ccc(CO)c(S(C)(=O)=O)c3)ccc2-n2ccc(C(C)(C)C#N)n2)o1` [Example 378, 2-(1-(4′-(hydroxymethyl)-3-(2-methyl-4-(4-(trifluoromethoxy)phenyl)oxazol-5-yl)-3-(methylsulfonyl)-[1,1′-biphenyl]-4-yl)-1H-pyrazol-3-yl)-2-methylpropanenitrile], for which the pEC50 was 7.82 and the Emax was 29%.

`Cc1nc(-c2ccc(OC(F)(F)F)cc2)c(-c2cc(-c3cc(F)c(CO)c(S(C)(=O)=O)c3)ccc2-n2cc(Cl)c(C(F)(F)F)n2)o1` [Example 379, (4′-(4-chloro-3-(trifluoromethyl)-1H-pyrazol-1-yl)-3-fluoro-3′-(2-methyl-4-(4-(trifluoromethoxy)phenyl)oxazol-5-yl)-5-(methylsulfonyl)-[1,1′-biphenyl]-4-yl)methanol]: the pEC50 is 7.57 and the Emax stood at 86%.

`Cc1nc(-c2ccc(OC(F)(F)F)cc2)c(-c2cc(-c3cccc(S(C)(=O)=O)c3)ccc2-n2cc(Cl)c(C(F)(F)F)n2)o1` [Example 380, 5-(4-(4-chloro-3-(trifluoromethyl)-1H-pyrazol-1-yl)-3′-(methylsulfonyl)-[1,1′-biphenyl]-3-yl)-2-methyl-4-(4-(trifluoromethoxy)phenyl) oxazole]: the pEC50 was 6.33 and the Emax was determined as 29%.

As to `Cc1nc(-c2ccc(OC(F)(F)F)cc2)c(-c2cc(-c3cccc(C4(C(N)=O)CC4)c3)ccc2-n2nc(C(F)(F)F)cc2Cl)o1` [Example 381, 1-(4′-(5-chloro-3-(trifluoromethyl)-1H-pyrazol-1-yl)-3′-(2-methyl-4-(4-(trifluoromethoxy)phenyl)oxazol-5-yl)-[1,1′-biphenyl]-3-yl) cyclopropanecarboxamide], the pEC50 was 5.97 and the Emax was 61%.

Consider `CCOc1cc(C(F)(F)F)nn1-c1ccc(-c2cc(F)c(CO)c(S(C)(=O)=O)c2)cc1-c1nc(C)oc1-c1ccc(OC(F)(F)F)cc1` [Example 382, (4′-(5-ethoxy-3-(trifluoromethyl)-1H-pyrazol-1-yl)-3-fluoro-3′-(2-methyl-5-(4-(trifluoromethoxy)phenyl)oxazol-4-yl)-5-(methylsulfonyl)biphenyl-4-yl)methanol], for which the pEC50 is 6.20 and the Emax was determined as 50%.

As to `Cc1nc(-c2cc(-c3cccc(S(C)(=O)=O)c3)ccc2-n2nc(C(F)(F)F)cc2C)c(-c2ccc(OC(F)F)cc2)o1` [Example 383, 5-(4-(difluoromethoxy)phenyl)-2-methyl-4-(4-(5-methyl-3-(trifluoromethyl)-1H-pyrazol-1-yl)-3′-(methylsulfonyl)biphenyl-3-yl)oxazole], the pEC50 is 7.74 and the Emax was 76%.

As to `Cc1nc(-c2cc(-c3cc(F)c(CO)c(S(C)(=O)=O)c3)ccc2-n2nc(C(F)(F)F)cc2C)c(-c2ccc(OC(F)F)cc2)o1` [Example 384, (3′-(5-(4-(difluoromethoxy)phenyl)-2-methyloxazol-4-yl)-3-fluoro-4′-(5-methyl-3-(trifluoromethyl)-1H-pyrazol-1-yl)-5-(methylsulfonyl)biphenyl-4-yl)methanol], the pEC50 is 7.82 and the Emax amounted to 73%.

On to `Cc1nc(-c2cc(-c3cccc(S(C)(=O)=O)c3)ccc2-n2nc(C(F)(F)F)cc2C)c(-c2ccc(OC(F)(F)F)cc2)o1` [Example 385, 2-methyl-4-(4-(5-methyl-3-(trifluoromethyl)-1H-pyrazol-1-yl)-3′-(methylsulfonyl)biphenyl-3-yl)-5-(4-(trifluoromethoxy)phenyl) oxazole], for which the negative-log EC50 (pEC50) was 7.38 and the Emax came to 71%.

The values above are taken from patent US9751869B2, “LXR modulators” (BRISTOL-MYERS SQUIBB COMPANY, priority 2013, dated 2017).
